Results published in PubChem BioAssay (NCI).
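Grown in 96-well plates, cells were treated for 48 hours with each compound at five concentrations. Insufficient inhibition: endpoint recorded as highest concentration tested. Definition used: TGI = concentration required for complete inhibition of growth.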

Tests used:
Assay in all cases: NCI-60 cell line screen, 48 h
[1] = system: A498 renal
[2] = system: LXFL 529 NSCLC
[3] = system: SNB-19 CNS
[4] = system: SNB-75 CNS
[5] = system: NCI-H23 lung
[6] = system: NCI-H522 lung
[7] = system: DMS 114 small cell lung

Measured: TGI

O=C1C=CC(=CC=C2C=CN(CCCCCCCCCCC(=O)NCCCCCCCCCCCC(=O)O)C=C2)C=C1
> 100 µM: [1] | [2] | [3] | [4] | [5] | [6] | [7]
